# Article PMC8689225, “Cardiac ryanodine receptor N-terminal region biosensors identify novel inhibitors via FRET-based high-throughput screening” (The Journal of Biological Chemistry, 2021)
# Where two headings read alike, the source gives them in different places.
# What was measured:
# [1] = target: T1, human RyR2 (Homo sapiens, UniProt Q92736); assay: [Ca2+]ER load in permeabilized HEK293 cells expressing GFP-hRyR2, mCer-SERCA2a, R-CEPIA1er; format: cell-based; conditions: compared to vehicle
# T1 construct: expressed in transfected cells; host or cells: HEK293, transient co-transfection with mCer-SERCA2a and R-CEPIA1er
# Procedure: The method for measuring of [Ca^2+]ER load-leak balance in HEK293 cells was previously described ([48]). Briefly, HEK293 cells were transiently cotransfected with plasmids encoding GFP-hRyR2, mCer-SERCA2a, and R-CEPIA1er cDNAs. After 48 h of protein expression, transfected cells were used for the confocal experiments. Before each measurement, cells were washed with a solution containing (in mM): 150 K-aspartate, 0.25 MgCl2, 0.1 EGTA, 10 HEPES, pH 7.2. Then, the cellular plasma membranes were permeabilized with 0.005% saponin dissolved in the experimental solution containing (in mM): K-aspartate 100; KCl 15; KH2PO4 5; MgATP 5; EGTA 0.35; CaCl2 0.22; MgCl2 0.75; HEPES 10; dextran (MW: 40,000) 2%, pH 7.2. Free [Ca^2+] and [Mg^2+] were set at 100 nM and 1 mM respectively. After 3 min of saponin incubation, the permeabilized cells were perfused with saponin-free experimental solution.
# Changes in [Ca^2+]ER load-leak balance in permeabilized HEK293 cells were monitored using a laser scanning confocal microscope (Radiance 2000 MP, BioRad) equipped with a 40× oil objective lens (N.A. =1.3). […]
# Cells were perfused with the experimental solution for 3 min to ensure a steady [Ca^2+]ER signal. […] Fmax was determined upon application of 2 μM ionomycin and 10 mM Ca^2+. Changes in [Ca^2+]ER were calculated according to [Ca^2+]ER = (F−Fmin)/(Fmax−Fmin).
# [2] = target: T2, RyR1 (Sus scrofa, UniProt P16960); assay: [3H]ryanodine binding to skeletal SR (HSR) vesicles; format: biochemical, pig; conditions: for EC50: Table S4, read-out: EC50, [3H]ryanodine binding, skeletal HSR
# T2 construct: from tissue; host or cells: porcine longissimus dorsi muscle, heavy SR vesicles
# Procedure: Crude sarcoplasmic reticulum membrane vesicles were isolated from porcine longissimus dorsi muscle and porcine cardiac left ventricle tissue by differential centrifugation of homogenized tissue, as established previously ([65]). Skeletal heavy SR (HSR) vesicles, which are enriched with RyR1, were isolated by fractionation of crude skeletal SR vesicles using a discontinuous sucrose gradient, in accordance with our published work ([65]). All vesicles were flash-frozen and stored at −80 °C.
# In 96-well plates, skeletal SR membranes (HSR, 1 mg/ml) and cardiac SR membranes (CSR, 3 mg/ml) were preincubated with 1% DMSO or hit compound for 30 min at 22 °C in a solution containing 150 mM KCl, 5 mM GSH, 1 μg/ml Aprotinin/Leupeptin, 1 mM EGTA, and 65 μM or 1.02 mM CaCl2 (as determined by MaxChelator to yield 30 nM or 30 μM of free Ca^2+, respectively), 0.1 mg/ml of BSA, and 20 mM K-PIPES (pH 7.0). Nonspecific [^3H]ryanodine binding to SR was assessed by addition of 40 μM nonradioactively labeled ryanodine. Maximal [^3H]ryanodine binding was assessed by addition of 5 mM adenylyl-imidodiphosphate (AMP-PNP), and in the case of CSR, 20 mM caffeine was added. These control samples were each loaded over four wells per plate. Binding of [^3H]ryanodine (7.5 and 10 nM for CSR and HSR, respectively) was determined following a 3 h incubation at 37 °C and filtration through grade GF/B glass microfiber filters (Brandel Inc) using a Brandel Harvester. In 4 ml of Ecolite scintillation cocktail (MP biomedicals), [^3H]ryanodine retained on the filter was counted using a Beckman LS6000 scintillation counter.
# [3] = system: rat skeletal muscle fibers; assay: Electrically evoked Ca2+ transients in skinned skeletal muscle fibers; format: cell-based; conditions: 10 μM FA or 1 mM tetracaine, 1 Hz
# Source text: Mechanically skinned fibers were isolated, mounted in a custom chamber, and bathed in a resting physiological solution containing rhod-2, as previously described ([21]). The Ca^2+-sensitive dye rhod-2 was used to track cytosolic Ca^2+ transients when exposed to electrical stimulation. Field pulses at 1 Hz frequency and 4 ms in duration were applied across platinum electrodes parallel to the long axis of the fiber. Imaging for electrical stimulation experiments was in xt mode, at a rate of 2 ms.line^−1. DMSO vehicle (0.01%), FA (10 μM), and tetracaine were added to the physiological solution. Each treatment was applied precisely at the seventh successive Ca^2+ transient.
# T2 sequence (P16960 whole entry): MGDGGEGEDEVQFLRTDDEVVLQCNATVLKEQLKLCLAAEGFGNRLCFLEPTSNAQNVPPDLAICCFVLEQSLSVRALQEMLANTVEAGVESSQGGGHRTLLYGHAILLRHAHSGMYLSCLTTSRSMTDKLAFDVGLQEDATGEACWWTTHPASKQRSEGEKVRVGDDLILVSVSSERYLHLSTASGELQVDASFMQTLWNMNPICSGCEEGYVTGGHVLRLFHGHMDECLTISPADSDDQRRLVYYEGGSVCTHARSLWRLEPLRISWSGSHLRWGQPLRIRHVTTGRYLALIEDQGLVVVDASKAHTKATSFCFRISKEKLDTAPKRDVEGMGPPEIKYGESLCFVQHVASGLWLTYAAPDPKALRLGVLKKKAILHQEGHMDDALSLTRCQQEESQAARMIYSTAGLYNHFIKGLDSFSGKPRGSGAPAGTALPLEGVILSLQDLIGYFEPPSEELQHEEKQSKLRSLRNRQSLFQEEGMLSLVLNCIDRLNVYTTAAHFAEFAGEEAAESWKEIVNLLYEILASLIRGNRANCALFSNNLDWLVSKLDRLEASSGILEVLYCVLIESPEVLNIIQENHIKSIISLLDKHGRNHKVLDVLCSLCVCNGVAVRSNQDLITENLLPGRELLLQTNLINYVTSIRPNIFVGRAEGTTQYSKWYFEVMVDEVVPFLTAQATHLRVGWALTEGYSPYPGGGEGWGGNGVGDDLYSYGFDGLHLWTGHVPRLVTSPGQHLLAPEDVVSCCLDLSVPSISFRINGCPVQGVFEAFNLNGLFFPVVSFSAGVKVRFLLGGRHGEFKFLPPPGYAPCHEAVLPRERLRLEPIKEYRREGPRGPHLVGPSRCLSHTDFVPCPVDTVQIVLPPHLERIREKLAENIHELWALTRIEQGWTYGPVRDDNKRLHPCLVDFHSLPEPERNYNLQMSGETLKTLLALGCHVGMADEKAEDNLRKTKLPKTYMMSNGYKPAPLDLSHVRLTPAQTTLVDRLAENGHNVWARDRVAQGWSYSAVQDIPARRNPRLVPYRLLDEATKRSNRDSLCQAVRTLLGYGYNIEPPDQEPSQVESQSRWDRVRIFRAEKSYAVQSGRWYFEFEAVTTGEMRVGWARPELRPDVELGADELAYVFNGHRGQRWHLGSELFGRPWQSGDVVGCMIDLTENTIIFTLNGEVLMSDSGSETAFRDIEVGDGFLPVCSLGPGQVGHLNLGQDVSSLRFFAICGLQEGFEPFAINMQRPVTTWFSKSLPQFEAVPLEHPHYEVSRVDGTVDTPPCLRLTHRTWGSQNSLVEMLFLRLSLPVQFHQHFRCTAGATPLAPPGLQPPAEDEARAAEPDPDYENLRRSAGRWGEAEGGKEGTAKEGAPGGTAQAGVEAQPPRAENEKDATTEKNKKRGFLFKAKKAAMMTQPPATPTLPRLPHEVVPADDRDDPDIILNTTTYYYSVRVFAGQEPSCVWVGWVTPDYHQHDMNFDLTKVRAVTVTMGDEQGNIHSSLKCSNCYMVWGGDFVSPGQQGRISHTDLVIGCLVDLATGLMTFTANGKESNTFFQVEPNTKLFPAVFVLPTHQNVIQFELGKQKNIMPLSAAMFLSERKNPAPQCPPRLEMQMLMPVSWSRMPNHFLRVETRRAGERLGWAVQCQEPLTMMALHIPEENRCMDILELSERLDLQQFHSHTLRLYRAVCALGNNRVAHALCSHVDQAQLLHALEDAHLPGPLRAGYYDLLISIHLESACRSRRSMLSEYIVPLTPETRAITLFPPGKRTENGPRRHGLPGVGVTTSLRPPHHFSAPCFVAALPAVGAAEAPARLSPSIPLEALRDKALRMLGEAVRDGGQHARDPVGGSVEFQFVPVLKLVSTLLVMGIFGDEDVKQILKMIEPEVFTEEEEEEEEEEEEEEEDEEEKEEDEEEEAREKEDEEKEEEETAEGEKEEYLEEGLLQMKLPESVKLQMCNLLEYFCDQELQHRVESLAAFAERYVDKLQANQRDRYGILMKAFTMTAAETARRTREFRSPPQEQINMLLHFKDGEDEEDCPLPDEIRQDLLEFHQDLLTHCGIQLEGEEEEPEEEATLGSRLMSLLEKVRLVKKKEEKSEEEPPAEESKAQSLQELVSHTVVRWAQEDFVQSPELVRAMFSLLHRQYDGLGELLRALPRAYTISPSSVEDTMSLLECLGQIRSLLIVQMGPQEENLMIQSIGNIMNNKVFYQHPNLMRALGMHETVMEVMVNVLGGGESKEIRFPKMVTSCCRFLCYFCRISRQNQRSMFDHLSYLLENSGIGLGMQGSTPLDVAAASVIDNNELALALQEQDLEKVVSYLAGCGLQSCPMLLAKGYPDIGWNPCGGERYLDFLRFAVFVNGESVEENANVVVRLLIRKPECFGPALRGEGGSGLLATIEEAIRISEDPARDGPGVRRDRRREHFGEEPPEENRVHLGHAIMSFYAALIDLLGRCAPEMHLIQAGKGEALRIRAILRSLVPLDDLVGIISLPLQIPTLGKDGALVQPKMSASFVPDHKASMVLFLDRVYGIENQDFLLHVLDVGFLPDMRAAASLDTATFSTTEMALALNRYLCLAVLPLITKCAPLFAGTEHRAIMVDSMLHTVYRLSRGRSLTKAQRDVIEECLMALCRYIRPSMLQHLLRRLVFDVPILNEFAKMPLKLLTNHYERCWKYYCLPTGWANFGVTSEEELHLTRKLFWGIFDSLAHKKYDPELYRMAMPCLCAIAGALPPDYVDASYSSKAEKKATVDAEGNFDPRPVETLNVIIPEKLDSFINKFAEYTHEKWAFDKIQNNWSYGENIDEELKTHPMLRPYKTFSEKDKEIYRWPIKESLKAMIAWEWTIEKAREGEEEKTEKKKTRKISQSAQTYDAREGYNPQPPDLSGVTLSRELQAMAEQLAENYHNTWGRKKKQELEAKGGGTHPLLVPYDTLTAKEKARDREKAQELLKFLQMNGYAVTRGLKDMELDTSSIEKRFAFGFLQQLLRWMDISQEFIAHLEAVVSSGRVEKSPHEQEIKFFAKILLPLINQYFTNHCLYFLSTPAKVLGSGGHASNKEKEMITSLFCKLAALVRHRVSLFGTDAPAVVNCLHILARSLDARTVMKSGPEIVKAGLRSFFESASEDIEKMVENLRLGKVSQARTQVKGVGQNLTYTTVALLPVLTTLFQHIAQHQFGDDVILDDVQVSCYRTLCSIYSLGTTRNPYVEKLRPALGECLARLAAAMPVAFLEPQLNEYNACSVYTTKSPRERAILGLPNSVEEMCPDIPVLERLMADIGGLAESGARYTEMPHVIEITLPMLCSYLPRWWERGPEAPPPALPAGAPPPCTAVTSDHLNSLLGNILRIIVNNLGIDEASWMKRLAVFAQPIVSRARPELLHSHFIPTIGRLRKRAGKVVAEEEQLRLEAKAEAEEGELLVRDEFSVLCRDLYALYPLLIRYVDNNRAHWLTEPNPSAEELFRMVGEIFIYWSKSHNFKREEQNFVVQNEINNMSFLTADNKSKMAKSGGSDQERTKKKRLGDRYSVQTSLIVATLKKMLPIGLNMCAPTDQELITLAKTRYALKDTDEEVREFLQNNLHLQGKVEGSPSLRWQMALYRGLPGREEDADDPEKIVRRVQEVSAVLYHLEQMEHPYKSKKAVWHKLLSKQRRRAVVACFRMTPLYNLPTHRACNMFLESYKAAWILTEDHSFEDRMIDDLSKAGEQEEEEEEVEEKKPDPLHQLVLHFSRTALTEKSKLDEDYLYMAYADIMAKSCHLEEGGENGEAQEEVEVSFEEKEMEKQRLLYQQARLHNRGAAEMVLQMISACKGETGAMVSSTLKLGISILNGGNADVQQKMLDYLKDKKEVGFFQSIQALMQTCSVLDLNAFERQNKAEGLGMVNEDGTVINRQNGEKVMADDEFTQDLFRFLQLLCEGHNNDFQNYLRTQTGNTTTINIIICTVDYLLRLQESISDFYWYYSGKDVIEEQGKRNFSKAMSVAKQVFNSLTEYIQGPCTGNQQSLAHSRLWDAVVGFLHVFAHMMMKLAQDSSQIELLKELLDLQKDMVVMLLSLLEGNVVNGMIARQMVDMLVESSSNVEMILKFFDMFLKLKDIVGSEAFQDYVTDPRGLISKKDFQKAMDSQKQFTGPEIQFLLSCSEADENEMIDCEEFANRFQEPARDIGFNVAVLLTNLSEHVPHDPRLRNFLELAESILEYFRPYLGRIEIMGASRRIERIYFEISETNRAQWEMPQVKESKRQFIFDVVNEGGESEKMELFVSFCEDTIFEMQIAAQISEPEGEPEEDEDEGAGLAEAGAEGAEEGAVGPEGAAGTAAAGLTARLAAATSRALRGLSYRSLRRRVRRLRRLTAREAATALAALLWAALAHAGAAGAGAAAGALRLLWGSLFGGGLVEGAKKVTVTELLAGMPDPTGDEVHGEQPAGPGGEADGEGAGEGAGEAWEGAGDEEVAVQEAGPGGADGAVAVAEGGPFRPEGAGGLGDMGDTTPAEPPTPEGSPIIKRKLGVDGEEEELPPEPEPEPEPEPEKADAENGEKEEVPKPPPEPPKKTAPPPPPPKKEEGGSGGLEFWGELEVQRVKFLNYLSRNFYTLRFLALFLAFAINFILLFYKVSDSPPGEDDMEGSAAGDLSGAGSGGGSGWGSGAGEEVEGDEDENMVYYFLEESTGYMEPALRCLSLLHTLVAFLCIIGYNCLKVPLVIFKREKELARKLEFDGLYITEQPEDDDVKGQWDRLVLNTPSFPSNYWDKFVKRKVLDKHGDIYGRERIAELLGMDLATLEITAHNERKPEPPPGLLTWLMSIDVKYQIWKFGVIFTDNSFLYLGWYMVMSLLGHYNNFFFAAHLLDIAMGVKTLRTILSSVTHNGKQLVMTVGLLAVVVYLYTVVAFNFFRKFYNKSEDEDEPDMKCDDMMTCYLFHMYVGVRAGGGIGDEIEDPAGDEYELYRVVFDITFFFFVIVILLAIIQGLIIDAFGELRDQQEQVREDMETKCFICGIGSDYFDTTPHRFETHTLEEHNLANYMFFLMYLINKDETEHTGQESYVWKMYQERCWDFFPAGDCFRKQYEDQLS
smiles,measurement,setting,value
"CC(=O)O[C@H]1C[C@@]2(C)[C@@H](C[C@@H](O)[C@H]3[C@@]4(C)CC[C@@H](O)[C@@H](C)[C@@H]4CC[C@@]32C)/C1=C(\CCC=C(C)C)C(=O)O [FA, (2Z)-2-[(3R,4S,5S,8S,9S,10S,11R,13R,14S,16S)-16-acetyloxy-3,11-dihydroxy-4,8,10,14-tetramethyl-2,3,4,5,6,7,9,11,12,13,15,16-dodecahydro-1H-cyclopenta[a]phenanthren-17-ylidene]-6-methylhept-5-enoic acid]",[Ca2+]ER increase,[1]; 5 μM FA,94 ± 17%
same,[Ca2+]ER decrease,[1]; 10 μM FA,24 ± 8%
same,EC50,[2]; [Ca2+] 30 nM,0.01 µM
same,EC50,"[2]; [Ca2+], 30 µM",21.1 µM
same,maximum inhibitory effect on [3H]ryanodine binding,"[2]; skeletal SR, 30 nM Ca2+",~50%
same,effect on [3H]ryanodine binding to RyR1,"[2]; skeletal SR, 30 μM Ca2+",strongly increased
same,electrically induced Ca2+ transient amplitude,[3],did not have an effect
